Our source for the IC50 values is patent US20130121994A1, “TRIAZOLOPYRIDINE DERIVATIVES” (BAYER INTELLECTUAL PROPERTY GMBH, priority 2009, published 2013).

SMILES strings stand for the structures. Some results are limits rather than exact numbers.

The experiment has as its target T1, human kinase Mps-1 (Homo sapiens, UniProt P33981).
T1 construct: N-terminally GST-tagged human full length recombinant Mps-1 kinase; GST (N); purchased Invitrogen, Karslruhe, Germany PV4071
T1 sequence (P33981 1-857): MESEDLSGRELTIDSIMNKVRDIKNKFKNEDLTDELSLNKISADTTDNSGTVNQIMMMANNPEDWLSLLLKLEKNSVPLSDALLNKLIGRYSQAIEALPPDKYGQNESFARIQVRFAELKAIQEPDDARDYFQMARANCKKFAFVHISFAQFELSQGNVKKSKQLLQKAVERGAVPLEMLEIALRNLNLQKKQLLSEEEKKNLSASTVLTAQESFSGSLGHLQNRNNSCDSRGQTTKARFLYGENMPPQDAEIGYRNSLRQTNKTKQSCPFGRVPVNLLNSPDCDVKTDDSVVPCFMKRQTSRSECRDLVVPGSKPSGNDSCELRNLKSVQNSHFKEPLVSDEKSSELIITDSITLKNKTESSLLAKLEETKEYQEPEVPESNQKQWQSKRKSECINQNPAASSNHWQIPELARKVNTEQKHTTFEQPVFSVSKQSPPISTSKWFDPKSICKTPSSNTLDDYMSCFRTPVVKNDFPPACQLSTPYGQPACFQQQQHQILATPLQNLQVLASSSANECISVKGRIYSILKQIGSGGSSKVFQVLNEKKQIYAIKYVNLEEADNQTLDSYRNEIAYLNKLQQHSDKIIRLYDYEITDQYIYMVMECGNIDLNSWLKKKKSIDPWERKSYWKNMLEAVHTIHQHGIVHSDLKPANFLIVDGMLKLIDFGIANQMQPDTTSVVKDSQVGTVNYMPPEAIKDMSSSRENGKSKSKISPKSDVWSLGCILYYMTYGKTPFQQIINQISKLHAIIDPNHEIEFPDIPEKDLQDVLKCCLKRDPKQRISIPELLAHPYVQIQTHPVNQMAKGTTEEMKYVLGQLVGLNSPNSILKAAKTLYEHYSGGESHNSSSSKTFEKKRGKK
As to the kind of experiment: Mps-1 kinase assay (HTRF). The class given is biochemical. (In TR-FRET formats the signal depends on donor and acceptor labels being close together.)
In turn, `CCOc1cc(C(=O)NC(C)(C)CO)ccc1Nc1nc2ccc(-c3ccc(C(=O)NCC(C)C)cc3)cn2n1` [Example 11.035, 3-ethoxy-N-(1-hydroxy-2-methylpropan-2-yl)-4-[(6-{4-[(2-methylpropyl)carbamoyl]phenyl}[1,2,4]triazolo [1,5-a]pyridin-2-yl)amino]benzamide] returned an IC50 of 1.92 nM.
Take `CCOc1cc(C(=O)NCC(C)(C)O)ccc1Nc1nc2ccc(-c3ccc(C(=O)NCC(C)C)cc3)cn2n1` [Example 11.036, 3-ethoxy-N-(2-hydroxy-2-methylpropyl)-4-[(6-{4-[(2-methylpropyl)carbamoyl]phenyl}[1,2,4]triazolo [1,5-a]pyridin-2-yl)amino]benzamide]: the IC50 was found to be 2.58 nM.
Regarding `O=C(NCCO)c1ccc(Nc2nc3ccc(-c4ccc(C(=O)NCC(F)(F)F)cc4)cn3n2)c(OCC(F)(F)F)c1` [Example 11.037, N-(2-hydroxyethyl)-3-(2,2,2-trifluoroethoxy)-4-[(6-{4-[(2,2,2-trifluoroethyl)carbamoyl]phenyl}[1,2,4]triazolo [1,5-a]pyridin-2-yl)amino]benzamide], the IC50 is ≤ 1 nM.
The value for `CCN(CC)C(=O)c1ccc(Nc2nc3ccc(-c4ccc(C(=O)NCC(F)(F)F)cc4)cn3n2)cc1` [Example 11.038, N,N-diethyl-4-[(6-{4-[(2,2,2-trifluoroethyl)carbamoyl]phenyl}[1,2,4]triazolo [1,5-a]pyridin-2-yl)amino]benzamide] was 10.5 nM.
For the molecule `C[C@@H](NC(=O)c1cccc(-c2ccc3nc(Nc4ccccc4C#N)nn3c2)c1)C(C)(C)C` [Example 11.039, 3-{2-[(2-cyanophenyl)amino][1,2,4]triazolo[1,5-a]pyridin-6-yl}-N-[(2R)-3,3-dimethylbutan-2-yl]benzamide], the IC50 amounted to 1.71 nM.
The value for `C[C@@H](NC(=O)c1cccc(-c2ccc3nc(Nc4ccccc4C#N)nn3c2)c1)C(F)(F)F` [Example 11.040, 3-{2-[(2-cyanophenyl)amino][1,2,4]triazolo[1,5-a]pyridin-6-yl}-N-[(2R)-1,1,1-trifluoropropan-2-yl]benzamide] was 1.27 nM; that for `CC(F)(F)CNC(=O)c1cccc(-c2ccc3nc(Nc4ccccc4C#N)nn3c2)c1` [Example 11.041, 3-{2-[(2-cyanophenyl)amino][1,2,4]triazolo[1,5-a]pyridin-6-yl}-N-(2,2-difluoropropyl)benzamide] was 2.54 nM.
The value for `CC(C)(C)CNC(=O)c1cccc(-c2ccc3nc(Nc4ccccc4C#N)nn3c2)c1` [Example 11.042, 3-{2-[(2-cyanophenyl)amino][1,2,4]triazolo[1,5-a]pyridin-6-yl}-N-(2,2-dimethylpropyl)benzamide] was ≤ 1 nM.
For `N#Cc1ccccc1Nc1nc2ccc(-c3cccc(C(=O)NCC(F)(F)C(F)(F)F)c3)cn2n1` [Example 11.043, 3-{2-[(2-cyanophenyl)amino][1,2,4]triazolo[1,5-a]pyridin-6-yl}-N-(2,2,3,3,3-pentafluoropropyl)benzamide], the IC50 was ≤ 1 nM.
The molecule `N#Cc1ccccc1Nc1nc2ccc(-c3cccc(C(=O)NCC(F)(F)F)c3)cn2n1` [Example 11.044, 3-{2-[(2-cyanophenyl)amino][1,2,4]triazolo[1,5-a]pyridin-6-yl}-N-(2,2,2-trifluoroethyl)benzamide] returned an IC50 of 1.47 nM.
`CC(C)(C)NC(=O)c1cccc(-c2ccc3nc(Nc4ccccc4C#N)nn3c2)c1` [Example 11.045, N-tert-butyl-3-{2-[(2-cyanophenyl)amino][1,2,4]triazolo[1,5-a]pyridin-6-yl}benzamide] returned a half-inhibitory concentration (IC50) of 1.18 nM.
Molecule `CC(C)(CO)NC(=O)c1cccc(-c2ccc3nc(Nc4ccccc4C#N)nn3c2)c1` [Example 11.046, 3-{2-[(2-cyanophenyl)amino][1,2,4]triazolo[1,5-a]pyridin-6-yl}-N-(1-hydroxy-2-methylpropan-2-yl)benzamide] gave an IC50 of 3.29 nM. Compared with the last molecule, the IC50 is about 2.8-fold higher.
As for `CC(C)[C@@H](C)NC(=O)c1cccc(-c2ccc3nc(Nc4ccccc4C#N)nn3c2)c1` [Example 11.047, 3-{2-[(2-cyanophenyl)amino][1,2,4]triazolo[1,5-a]pyridin-6-yl}-N-[(2R)-3-methylbutan-2-yl]benzamide], the midpoint of inhibition, the IC50, lay at 4.15 nM. The IC50 values of the last two molecules are within 1.5-fold of each other.
In turn, `N#Cc1ccccc1Nc1nc2ccc(-c3cccc(C(=O)NCCC(F)(F)F)c3)cn2n1` [Example 11.048, 3-{2-[(2-cyanophenyl)amino][1,2,4]triazolo[1,5-a]pyridin-6-yl}-N-(3,3,3-trifluoropropyl)benzamide] gave an IC50 of 3.95 nM.
The molecule `CC(C)CNC(=O)c1cccc(-c2ccc3nc(Nc4ccccc4C#N)nn3c2)c1` [Example 11.049, 3-{2-[(2-cyanophenyl)amino][1,2,4]triazolo[1,5-a]pyridin-6-yl}-N-isobutylbenzamide] returned an IC50 of 3.39 nM.
As for `N#Cc1ccccc1Nc1nc2ccc(-c3cccc(C(=O)NCC(F)F)c3)cn2n1` [Example 11.050, 3-{2-[(2-cyanophenyl)amino][1,2,4]triazolo[1,5-a]pyridin-6-yl}-N-(2,2-difluoroethyl)benzamide], the IC50 was 4.18 nM. The IC50 values of the last two molecules are within 1.5-fold of each other.
Molecule `CC(C)[C@H](C)NC(=O)c1cccc(-c2ccc3nc(Nc4ccccc4C#N)nn3c2)c1` [Example 11.051, 3-{2-[(2-cyanophenyl)amino][1,2,4]triazolo[1,5-a]pyridin-6-yl}-N-[(2S)-3-methylbutan-2-yl]benzamide] came in with an IC50 of 5.68 nM.
In the case of `CCCNC(=O)c1cccc(-c2ccc3nc(Nc4ccccc4C#N)nn3c2)c1` [Example 11.052, 3-{2-[(2-cyanophenyl)amino][1,2,4]triazolo[1,5-a]pyridin-6-yl}-N-propylbenzamide], half-maximal inhibition (IC50) required 6.37 nM.
Molecule `N#Cc1ccccc1Nc1nc2ccc(-c3cccc(C(=O)NCCF)c3)cn2n1` [Example 11.054, 3-{2-[(2-cyanophenyl)amino][1,2,4]triazolo[1,5-a]pyridin-6-yl}-N-(2-fluoroethyl)benzamide] returned an IC50 of 6.13 nM. The IC50 values of the last two molecules are within 1.5-fold of each other.
Turning to `CC(C)(C)CCNC(=O)c1cccc(-c2ccc3nc(Nc4ccccc4C#N)nn3c2)c1` [Example 11.055, 3-{2-[(2-cyanophenyl)amino][1,2,4]triazolo[1,5-a]pyridin-6-yl}-N-(3,3-dimethylbutyl)benzamide], the IC50 was found to be 9.81 nM.
Molecule `CC(C)(C)CNC(=O)c1cc(F)cc(-c2ccc3nc(Nc4ccccc4C#N)nn3c2)c1` [Example 11.056, 3-{2-[(2-cyanophenyl)amino][1,2,4]triazolo[1,5-a]pyridin-6-yl}-N-(2,2-dimethylpropyl)-5-fluorobenzamide] had a concentration for half-maximal inhibition (IC50) of 9.21 nM.
Turning to `C[C@H](NC(=O)c1cccc(-c2ccc3nc(Nc4ccccc4C#N)nn3c2)c1)C(C)(C)C` [Example 11.057, 3-{2-[(2-cyanophenyl)amino][1,2,4]triazolo[1,5-a]pyridin-6-yl}-N-[(2S)-3,3-dimethylbutan-2-yl]benzamide], half-maximal inhibition (IC50) was put at 12.2 nM.
For `CC(C)(C)CNC(=O)c1cccc(-c2ccc3nc(Nc4ccccc4C#N)nn3c2)c1F` [Example 11.058, 3-{2-[(2-cyanophenyl)amino][1,2,4]triazolo[1,5-a]pyridin-6-yl}-N-(2,2-dimethylpropyl)-2-fluorobenzamide], the 50% inhibitory concentration (IC50) is 12.8 nM.
Molecule `N#Cc1ccccc1Nc1nc2ccc(-c3cc(F)cc(C(=O)NCC(F)(F)F)c3)cn2n1` [Example 11.059, 3-{2-[(2-cyanophenyl)amino][1,2,4]triazolo[1,5-a]pyridin-6-yl}-5-fluoro-N-(2,2,2-trifluoroethyl)benzamide] yielded an IC50 of 12.6 nM.
Consider `COC(C)(C)CNC(=O)c1cccc(-c2ccc3nc(Nc4ccccc4C#N)nn3c2)c1` [Example 11.060, 3-{2-[(2-cyanophenyl)amino][1,2,4]triazolo[1,5-a]pyridin-6-yl}-N-(2-methoxy-2-methylpropyl)benzamide], for which the IC50 was 9.04 nM. This IC50 and that of the molecule before are within 1.5-fold of each other.
As for `N#Cc1ccccc1Nc1nc2ccc(-c3cccc(C(=O)NCC(F)(F)F)c3F)cn2n1` [Example 11.061, 3-{2-[(2-cyanophenyl)amino][1,2,4]triazolo[1,5-a]pyridin-6-yl}-2-fluoro-N-(2,2,2-trifluoroethyl)benzamide], it took 12.9 nM to reach half-maximal inhibition (IC50).
Consider `CC(C)(O)CNC(=O)c1cccc(-c2ccc3nc(Nc4ccccc4C#N)nn3c2)c1` [Example 11.062, 3-{2-[(2-cyanophenyl)amino][1,2,4]triazolo[1,5-a]pyridin-6-yl}-N-(2-hydroxy-2-methylpropyl)benzamide], for which the midpoint of inhibition, the IC50, lay at 13.9 nM.
`N#Cc1ccccc1Nc1nc2ccc(-c3cccc(C(=O)NCC(F)(F)C(F)(F)F)c3F)cn2n1` [Example 11.063, 3-{2-[(2-cyanophenyl)amino][1,2,4]triazolo[1,5-a]pyridin-6-yl}-2-fluoro-N-(2,2,3,3,3-pentafluoropropyl)benzamide]: the IC50 was found to be 17.3 nM. This IC50 and that of the molecule before are within 1.5-fold of each other.
With `C[C@H](NC(=O)c1cccc(-c2ccc3nc(Nc4ccccc4C#N)nn3c2)c1)C(F)(F)F` [Example 11.064, 3-{2-[(2-cyanophenyl)amino][1,2,4]triazolo[1,5-a]pyridin-6-yl}-N-[(2S)-1,1,1-trifluoropropan-2-yl]benzamide], the IC50 was found to be 26.5 nM. This IC50 is about 1.5-fold higher than that of the molecule before.

For orientation: IC50 means the midpoint of a concentration-inhibition curve.
